In patent publication US11485776B2, “Antibodies against infectious diseases” (priority 2015, dated 2022):
Converted amounts (≈) assume the structure as drawn.

Key:
Type in all cases: cell-based
C. parapsilosis = experiment: MIC test strips, clinical C. parapsilosis
Experimental: (§1) C. albicans (SC 5314), C. kruesi (clinical isolate), C. tropicalis (BCRC 20520), C. parapsilosis (BCRC 20515) and C. glabrate (BCRC 20586) were kindly provided by Dr. Ching-Hua Su from Taipei Medical University, Taipei, Taiwan. […] Candida species were cultured in YPD medium and their identities were confirmed by CHROMagar Candida plate (CHROMagar, Paris, France).

C. albicans = experiment: MIC test strips, clinical C. albicans
Experimental: as §1

C. glabrate = experiment: MIC test strips, clinical C. glabrate
Experimental: as §1

C. tropicalis = experiment: MIC test strips, clinical C. tropicalis
Experimental: as §1

[1] = specimen CP6-20, C. parapsilosis
[2] = specimen CP7-17, C. parapsilosis
[3] = specimen CP8-48, C. parapsilosis
[4] = specimen CT11-52, C. tropicalis
[5] = specimen CT12-54, C. tropicalis

Q: What does the source list for `OC(Cn1cncn1)(Cn1cncn1)c1ccc(F)cc1F` [fluconazole]?
A: Interpretation (C. parapsilosis; [1]): R; MIC (C. parapsilosis; [1]): 16 µg/mL (≈ 52.2 µM); Interpretation (C. parapsilosis; [2]): S; MIC (C. parapsilosis; [2]): 8 µg/mL (≈ 26.1 µM); Interpretation (C. parapsilosis; specimen CP8-20, C. parapsilosis): R; Interpretation (C. parapsilosis; [3]): S; MIC (C. parapsilosis; [3]): 4 µg/mL (≈ 13.1 µM); Interpretation (C. parapsilosis; specimen CP12-37, C. parapsilosis): R; Interpretation (C. albicans; specimen CA6-17, C. albicans): R; MIC (C. albicans; specimen CA6-17, C. albicans, read at 80% inhibition): 16 µg/mL (≈ 52.2 µM); Interpretation (C. albicans; specimen CA7-3, C. albicans): S; MIC (C. albicans; specimen CA7-3, C. albicans): 2 µg/mL (≈ 6.53 µM); Interpretation (C. albicans; specimen CA7-26, C. albicans): R; MIC (C. albicans; specimen CA7-26, C. albicans): 8 µg/mL (≈ 26.1 µM); Interpretation (C. albicans; specimen CA7-30, C. albicans): S; MIC (C. albicans; specimen CA7-30, C. albicans): 1 µg/mL (≈ 3.27 µM); Interpretation (C. albicans; specimen CA10-50, C. albicans): S; MIC (C. albicans; specimen CA10-50, C. albicans): 2 µg/mL (≈ 6.53 µM); Interpretation (C. albicans; specimen CA10-65, C. albicans): S; MIC (C. albicans; specimen CA10-65, C. albicans): 1 µg/mL (≈ 3.27 µM); Interpretation (C. glabrate; specimen CG5-8, C. glabrate): R; MIC (C. glabrate; specimen CG5-8, C. glabrate): 64 µg/mL (≈ 209 µM); Interpretation (C. glabrate; specimen CG5-66, C. glabrate): S; MIC (C. glabrate; specimen CG5-66, C. glabrate): 16 µg/mL (≈ 52.2 µM); Interpretation (C. glabrate; specimen CG7-37, C. glabrate): S; MIC (C. glabrate; specimen CG7-37, C. glabrate): 32 µg/ml; Interpretation (C. glabrate; specimen CG8-11, C. glabrate): R; MIC (C. glabrate; specimen CG8-11, C. glabrate): 64 µg/mL (≈ 209 µM); Interpretation (C. tropicalis; specimen CT6-29, C. tropicalis): R; MIC (C. tropicalis; specimen CT6-29, C. tropicalis): 32 µg/ml; Interpretation (C. tropicalis; specimen CT6-50, C. tropicalis): R; MIC (C. tropicalis; specimen CT6-50, C. tropicalis): 8 µg/mL (≈ 26.1 µM); Interpretation (C. tropicalis; [4]): R; MIC (C. tropicalis; [4]): 32 µg/ml; Interpretation (C. tropicalis; [5]): R; MIC (C. tropicalis; [5]): 8 µg/mL (≈ 26.1 µM)
